Molecules are shown by their SMILES.

We go through 47 molecules from patent publication US20080312301A1, “Substituted N-Benzo[D]Isoxazol-3-Yl-Amine Compounds as Inhibitors of Mglur5, Serotonin (5-Ht) and Noradrenaline Receptors, and Uses Thereof” (Gruenenthal GmbH, priority 2005, published 2008).

This assay deals with T1, mGluR5 receptor (Sus scrofa, UniProt I3LUI7).
T1 construct: 450 μg of protein from brain homogenate are incubated with 5 nM^3[H]-MPEP; from tissue; host or cells: pig brain hemispheres without medulla, cerebellum and pons
T1 sequence (I3LUI7 19-1212): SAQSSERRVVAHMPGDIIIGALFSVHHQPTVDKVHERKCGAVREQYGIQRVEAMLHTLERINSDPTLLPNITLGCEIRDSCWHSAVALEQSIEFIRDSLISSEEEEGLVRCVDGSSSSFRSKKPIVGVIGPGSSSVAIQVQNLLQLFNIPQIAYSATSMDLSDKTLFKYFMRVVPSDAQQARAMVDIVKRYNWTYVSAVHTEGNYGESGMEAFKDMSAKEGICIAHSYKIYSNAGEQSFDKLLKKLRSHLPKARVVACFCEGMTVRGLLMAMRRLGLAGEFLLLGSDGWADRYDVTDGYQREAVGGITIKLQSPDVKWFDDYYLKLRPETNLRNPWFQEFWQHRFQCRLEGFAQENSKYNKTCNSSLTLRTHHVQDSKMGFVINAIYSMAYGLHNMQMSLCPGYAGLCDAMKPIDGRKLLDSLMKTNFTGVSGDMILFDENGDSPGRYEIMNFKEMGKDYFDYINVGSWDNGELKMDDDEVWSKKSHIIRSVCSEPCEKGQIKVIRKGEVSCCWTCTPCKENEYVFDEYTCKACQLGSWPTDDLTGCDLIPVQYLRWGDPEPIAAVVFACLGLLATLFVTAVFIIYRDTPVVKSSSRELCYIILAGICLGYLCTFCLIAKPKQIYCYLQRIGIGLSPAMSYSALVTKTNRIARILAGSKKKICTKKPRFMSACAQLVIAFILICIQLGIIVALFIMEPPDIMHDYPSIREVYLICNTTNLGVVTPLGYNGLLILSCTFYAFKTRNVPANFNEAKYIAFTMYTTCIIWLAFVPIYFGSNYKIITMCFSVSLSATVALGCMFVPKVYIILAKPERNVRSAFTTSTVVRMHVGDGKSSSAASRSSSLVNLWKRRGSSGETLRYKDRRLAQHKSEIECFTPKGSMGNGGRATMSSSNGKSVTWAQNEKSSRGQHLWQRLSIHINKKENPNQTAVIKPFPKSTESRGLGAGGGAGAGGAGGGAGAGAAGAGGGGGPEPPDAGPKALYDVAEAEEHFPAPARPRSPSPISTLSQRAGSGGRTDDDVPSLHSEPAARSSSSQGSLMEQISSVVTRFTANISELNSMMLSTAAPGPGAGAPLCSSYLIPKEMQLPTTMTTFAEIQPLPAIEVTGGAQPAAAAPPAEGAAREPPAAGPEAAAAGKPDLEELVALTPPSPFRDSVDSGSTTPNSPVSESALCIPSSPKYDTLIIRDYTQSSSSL
As to the kind of experiment: Affinity for the mGluR5 receptor: displacement of 3[H]-MPEP binding in pig brain homogenate. The note with it: 10 μM compound, 5 nM 3[H]-MPEP. The method, then:
II. Method for Determining the Affinity for the mGluR5 Receptor
In each case 450 μg of protein from brain homogenate are incubated with 5 nM^3[H]-MPEP (Tocris, order No. R1212) (MPEP=2-methyl-6-[…]) and the compounds to be investigated (10 μM in the assay) in buffer (as above) in 250 μl incubation mixtures in 96-well microtiter plates at room temperature for 60 min.
The filter plates were then dried at 55° C. for 60 min.
With `O=C(Nc1noc2cccc(F)c12)C12CC3CC(CC(C3)C1)C2` [Example 150, adamantane-1-(4-fluorobenzo[d]isoxazol-3-yl)carboxamide], the “mGluR5 receptor inhibition of the 3[H]-MPEP binding in % (10 μM)” value (“mGluR5 receptor inhibition … in % (10 μM)” below) is 53.18%.
In general, inhibition refers to the share of the control response that was lost under treatment. `Cc1ccc2onc(NC(=O)c3ccccc3C)c2c1` [Example 125, 2-methyl-N-(5-methylbenzo[d]isoxazol-3-yl)benzamide] showed an inhibition at 10 µM of 40.6%.
Still for that read-out and setting: for `CCC(C)C(=O)Nc1noc2cccc(Cl)c12` (centres unmarked) [Example 154, N-(4-chlorobenzo[d]isoxazol-3-yl)-2-methylbutyramide] the value was 30%; for `Cc1ccc2onc(NC(=O)c3cccc(F)c3F)c2c1` [Example 126, 2,3-difluoro-N-(5-methylbenzo[d]isoxazol-3-yl)benzamide], 39.5%; for `Cc1ccc2onc(NC(=O)c3cccnc3Cl)c2c1` [Example 128, 2-chloro-N-(5-methylbenzo[d]isoxazol-3-yl)nicotinamide], 33.1%.
`COc1cccc2onc(NC(=O)c3ccccc3C)c12` [Example 156, N-(4-methoxybenzo[d]isoxazol-3-yl)-2-methylbenzamide] displayed an inhibition at 10 µM of 33.8%.
Still for that read-out and setting: for `COc1cccc2onc(NC(=O)c3ccccc3Cl)c12` [Example 157, 2-chloro-N-(4-methoxybenzo[d]isoxazol-3-yl)benzamide] the value was 32.4%; for `Cc1ccc2onc(NC(=O)c3ccc(F)cc3)c2c1` [Example 121, 4-fluoro-N-(5-methylbenzo[d]isoxazol-3-yl)benzamide], 32.2%.
Turning to `O=C(Nc1noc2ccc(F)cc12)c1ccc(F)cc1F` [Example 131, 2,4-difluoro-N-(5-fluorobenzo[d]isoxazol-3-yl)benzamide], the “mGluR5 receptor inhibition … in % (10 μM)” value is 42.52%.
In the case of `CCCC(C)C(=O)Nc1noc2cccc(OC)c12` (centres unmarked) [Example 161, N-(4-methoxybenzo[d]isoxazol-3-yl)-2-methylpentanamide], at 10 µM the inhibition was 38.5%.
`O=C(Nc1noc2ccccc12)c1c(F)ccc(F)c1F` [Example 89, N-benzo[d]isoxazol-3-yl-2,3,6-trifluorobenzamide] showed an inhibition at 10 µM of 51.1%.
Same read-out and setting: next, `O=C(Nc1noc2ccccc12)c1c(F)cccc1F` [Example 87, N-benzo[d]isoxazol-3-yl-2,6-difluorobenzamide]: 37%; `CC(C)(C)CC(=O)Nc1noc2cccc(OCC(F)(F)F)c12` [Example 164, 3,3-dimethyl-N-[4-(2,2,2-trifluoroethoxy)benzo[d]isoxazol-3-yl]butyramide]: 33.4%.
The same measure, in the same setting: next, `O=C(Nc1noc2cc(Br)ccc12)c1ccccc1Cl` [Example 114, N-(6-bromobenzo[d]isoxazol-3-yl)-2-chlorobenzamide]: 37.5%.
With `O=C(Nc1noc2cc(F)ccc12)C12CC3CC(CC(C3)C1)C2` [Example 102, adamantane-1-(6-fluorobenzo[d]isoxazol-3-yl)carboxamide], the “mGluR5 receptor inhibition … in % (10 μM)” value is reported as 52.11%.
For the molecule `CC(C)(C)CC(=O)Nc1noc2cc(Br)ccc12` [Example 117, N-(6-bromobenzo[d]isoxazol-3-yl)-3,3-dimethylbutyramide], the inhibition at 10 µM was 30.8%.
Consider `CCC(C)C(=O)Nc1noc2ccc(Br)cc12` (centres unmarked) [Example 135, N-(5-bromobenzo[d]isoxazol-3-yl)-2-methyl butyramide], for which the “mGluR5 receptor inhibition … in % (10 μM)” value was found to be 40.00%.
In turn, `O=C(Nc1noc2cccc(F)c12)c1ccc(Cl)cc1` [Example 148, 4-chloro-N-(4-fluorobenzo[d]isoxazol-3-yl)benzamide] returned an inhibition at 10 µM of 79.5%.
Turning to `CC(C)(C)CC(=O)Nc1noc2ccc(F)cc12` [Example 130, N-(5-fluorobenzo[d]isoxazol-3-yl)-3,3-dimethyl butyramide], the “mGluR5 receptor inhibition … in % (10 μM)” value is on record as 31.64%.
The same measure, in the same setting: next, `Cc1cccc(C(=O)Nc2noc3ccc(C)cc23)c1` [Example 143, 3-methyl-N-(5-methylbenzo[d]isoxazol-3-yl)benzamide]: 44.66%.
For `Cc1ccc(COc2cccc3onc(NC(=O)c4cccc([N+](=O)[O-])c4)c23)cc1` [Example 167, N-[4-(4-methylbenzyloxy)benzo[d]isoxazol-3-yl]-3-nitrobenzamide], the inhibition at 10 µM is 39.7%.
With `O=C(Nc1noc2cc(Br)ccc12)c1cccs1` [Example 116, thiophene-2-(6-bromobenzo[d]isoxazol-3-yl)carboxamide], the “mGluR5 receptor inhibition … in % (10 μM)” value was determined as 37.71%.
As for `Cc1ccc2onc(NC(=O)c3ccc(C#N)cc3)c2c1` [Example 144, 4-cyano-N-(5-methylbenzo[d]isoxazol-3-yl)benzamide], testing at 10 µM gave an inhibition of 48.8%.
The same measure, in the same setting: next, `O=C(Nc1noc2cccc(F)c12)c1ccccc1F` [Example 149, 2-fluoro-N-(4-fluorobenzo[d]isoxazol-3-yl)benzamide]: 32.5%; `CC(C)(C)c1ccc(C(=O)Nc2noc3ccc(F)cc23)cc1` [Example 104, 4-tert-butyl-N-(5-fluorobenzo[d]isoxazol-3-yl)benzamide]: 44.6%.
Still for that read-out and setting: for `O=C(Nc1noc2cc(Br)ccc12)c1ccc(Cl)c(Cl)c1` [Example 115, N-(6-bromobenzo[d]isoxazol-3-yl)-3,4-dichlorobenzamide] the value was 35.8%; for `Cc1ccc2onc(NC(=O)c3ccccc3)c2c1` [Example 118, N-(5-methylbenzo[d]isoxazol-3-yl)benzamide], 69%; for `COc1ccc(C(=O)Nc2noc3ccc(Br)cc23)cc1OC` [Example 137, N-(5-bromobenzo[d]isoxazol-3-yl)-3,4-dimethoxybenzamide], 31.2%.
`CC(C)(C)c1ccc(C(=O)Nc2noc3cc(Cl)ccc23)cc1` [Example 109, 4-tert-butyl-N-(6-chlorobenzo[d]isoxazol-3-yl)benzamide] gave an inhibition at 10 µM of 35.2%.
Same read-out and setting: for `O=C(Nc1noc2ccc(Br)cc12)c1cc(F)ccc1C(F)(F)F` [Example 141, N-(5-bromobenzo[d]isoxazol-3-yl)-5-fluoro-2-trifluoromethylbenzamide] the value was 33.1%.
Molecule `O=C(Nc1noc2cc(Cl)ccc12)c1ccccc1Cl` [Example 108, 2-chloro-N-(6-chlorobenzo[d]isoxazol-3-yl)benzamide] gave an inhibition at 10 µM of 34.7%.
Consider `O=C(Nc1noc2ccccc12)c1csc2ccccc12` [Example 92, benzo[b]thiophene-3-benzo[d]isoxazol-3-ylcarboxamide], for which the “mGluR5 receptor inhibition … in % (10 μM)” value was found to be 55.98%.
As for `CCC(C)C(=O)Nc1noc2cccc(OCC(F)(F)F)c12` (centres unmarked) [Example 163, 2-methyl-N-[4-(2,2,2-trifluoroethoxy)benzo[d]isoxazol-3-yl]butyramide], the inhibition at 10 µM came to 36%.
In the case of `Cc1cc(C(=O)Nc2noc3cccc(OCC(F)(F)F)c23)c(C)o1` [Example 166, 2,5-dimethylfuran-3-[4-(2,2,2-trifluoroethoxy)benzo[d]isoxazol-3-yl]carboxamide], the “mGluR5 receptor inhibition … in % (10 μM)” value is recorded as 32.39%.
`O=C(Nc1noc2cc(F)ccc12)c1cc(F)cc(F)c1` [Example 100, 3,5-difluoro-N-(6-fluorobenzo[d]isoxazol-3-yl)benzamide] registered an inhibition at 10 µM of 33.3%.
Turning to `CCCCC(CC)C(=O)Nc1noc2ccccc12` (centres unmarked) [Example 85, N-benzo[d]isoxazol-3-yl-2-ethylhexanamide], the inhibition at 10 µM came to 63.2%.
As for `Cc1cc(C(=O)Nc2noc3ccc(F)cc23)c(C)o1` [Example 132, 2,5-dimethylfuran-3-(5-fluorobenzo[d]isoxazol-3-yl)carboxamide], the “mGluR5 receptor inhibition … in % (10 μM)” value is 36.88%.
With `Cc1ccc(C(=O)Nc2noc3ccc(Br)cc23)cc1` [Example 138, N-(5-bromobenzo[d]isoxazol-3-yl)-4-methylbenzamide], the inhibition at 10 µM amounted to 32%.
The same measure, in the same setting: for `CN(C)c1cccc2onc(NC(=O)c3cc(F)cc(C(F)(F)F)c3)c12` [Example 169, N-(4-dimethylaminobenzo[d]isoxazol-3-yl)-3-fluoro-5-trifluoromethylbenzamide] the value was 36.8%.
The same measure, in the same setting: for `CC(C)(C)c1ccc(C(=O)Nc2noc3c(F)cccc23)cc1` [Example 94, 4-tert-butyl-N-(7-fluorobenzo[d]isoxazol-3-yl)benzamide] the value was 30.8%; for `O=C(Nc1noc2c(F)cccc12)c1ccc(F)cc1` [Example 96, 4-fluoro-N-(7-fluorobenzo[d]isoxazol-3-yl)benzamide], 30.5%.
Take `Cc1cccc(C(=O)Nc2noc3ccc(C)cc23)c1` [Example 123, 3-methyl-N-(5-methylbenzo[d]isoxazol-3-yl)benzamide]: the “mGluR5 receptor inhibition … in % (10 μM)” value was 89.70%.
`COc1ccccc1C(=O)Nc1noc2c(F)cccc12` [Example 98, N-(7-fluorobenzo[d]isoxazol-3-yl)-2-methoxybenzamide] registered an inhibition at 10 µM of 32%.
`Cc1ccc2onc(NC(=O)c3ccc(C(C)(C)C)cc3)c2c1` [Example 124, 4-tert-butyl-N-(5-methylbenzo[d]isoxazol-3-yl)benzamide] came in with an inhibition at 10 µM of 43.5%.
On the same count and under the same terms, for `Cc1ccc2onc(NC(=O)c3ccccc3F)c2c1` [Example 122, 2-fluoro-N-(5-methylbenzo[d]isoxazol-3-yl)benzamide] the value was 41%.
`CCC(C(=O)Nc1noc2ccc(C)cc12)c1ccccc1` (centres unmarked) [Example 145, N-(5-methylbenzo[d]isoxazol-3-yl)-2-phenylbutyramide] had an inhibition at 10 µM of 43.5%.
With `CCCc1ccc(C(=O)Nc2noc3ccc(F)cc23)cc1` [Example 107, N-(5-fluorobenzo[d]isoxazol-3-yl)-4-propylbenzamide], testing at 10 µM gave an inhibition of 42.1%.
